The nature of data set [1]: Approximate solubility of Form I and Form II in various solvents. It counts as physicochemical. From the text:
In addition, the lower melting point polymorph, Form II, also has significant advantages over the polymorphic mixture of Compound 1 as prepared according to known techniques. […] Form II is generally more soluble in polar and protic solvents than is Form I. Enhanced solubility of a compound will generally increase the bioavailability of that compound. When absorption of a drug is dissolution rate limited, use of the more soluble and faster dissolving form improves the rate and extent of bioavailability.

A short description of data set [2]: Physical (polymorphic) stability of the solid form. It counts as physicochemical. To be noted: stability toward conversion to a different polymorphic form; compared with the polymorphic mixture of Compound 1. From the text: The polymorph Form I is considered a heat stable form of Compound 1. By “heat stable” or “physically stable” is meant that the Form I is stable toward conversion to the polymorph Form II; although, it may be labile toward degradation to other compounds.
As the higher melting point polymorph, Form I has significant advantages over the polymorphic mixture of Compound 1 prepared according to known techniques. […] This, in turn, enhances the milling and compaction properties of the drug substance.

What is called Solubility is how much of the substance goes into solution per volume. Read a low Solubility as little dissolved substance. Regarding “N-methyl-N-(3-{3-[2-thienylcarbonyl]-pyrazol-[1,5-α]-pyrimidin-7-yl}phenyl)acetamide [Form II]”, the Solubility was found to be 6873 µg/mL in data set [1] (Acetone); 8928 µg/mL in data set [1] (Acetonitrile); 18.8 µg/mL in data set [1] (De-ionized water); 51 µg/mL in data set [1] (Diethyl ether); 1722 µg/mL in data set [1] (Ethanol, absolute (100%)); 2160 µg/mL in data set [1] (Ethyl acetate). The Solubility in data set [1] (Hexane) amounted to 50 µg/mL; in data set [1] (Isopropanol) it was 457 µg/mL; in data set [1] (Methanol) it was 1915 µg/mL; in data set [1] (Polyethylene Glycol 400, NF), 10100 µg/mL; in data set [1] (Tetrahydrofuran) it was 14740 µg/mL; in data set [1] (Toluene), 645 µg/mL. Also, in data set [1] (compared with Form I), the “Water solubility, in words” value is on record as “superior water solubility over Form I”.
Take “N-methyl-N-(3-{3-[2-thienylcarbonyl]-pyrazol-[1,5-α]-pyrimidin-7-yl}phenyl)acetamide [Form I]”: the Solubility in data set [1] (Acetone) worked out at 4842 µg/mL; in data set [1] (Acetonitrile), 6246 µg/mL; in data set [1] (De-ionized water) it was 8.3 µg/mL; in data set [1] (Diethyl ether), 80 µg/mL; in data set [1] (Ethanol, absolute (100%)), 1426 µg/mL; in data set [1] (Ethyl acetate) it was 1600 µg/mL. In addition, the Solubility in data set [1] (Hexane) is 41 µg/mL; in data set [1] (Isopropanol), 441 µg/mL; in data set [1] (Methanol) it was 1740 µg/mL; in data set [1] (Polyethylene Glycol 400, NF), 3259 µg/mL; in data set [1] (Tetrahydrofuran), 9964 µg/mL; in data set [1] (Toluene) it was 997 µg/mL. In addition, the “Physical stability, in words” value in data set [2] is listed as “superior physical stability”.

The record behind these values is US6958342B2, “Polymorphs of N-methyl-N-(3-{3-[2-thienylcarbonyl]-pyrazol-[1,5-α]-pyrimidin-7-yl}phenyl)acetamide and compositions and methods related thereto” (Neurocrine Biosciences, Inc., priority 1999, dated 2005).
